pEC50: −log10 of the molar value. Active and inactive are the calls of the source. The calls are words filed in the database; no cut-off is given here.
Assays:
Type in all cases: functional, organism-based
La Crosse virus [1] = test: Antiviral activity against La Crosse virus infected in african green monkey Vero cells assessed as inhibition of virus-induced cytopathic effect by fluorometric analysis
Vaccinia virus = test: Antiviral activity against Vaccinia virus; settings: Orthopoxvirus vaccinia
La Crosse virus [2] = test: Antiviral activity against La Crosse virus infected in african green monkey Vero cells assessed as inhibition of virus-induced cytopathic effect at 25 uM during single experiment set up by fluorometric analysis

| Compound | pEC50 (La Crosse virus [1]) | pEC50 (Vaccinia virus) | Activity (La Crosse virus [2]) |
| --- | --- | --- | --- |
| COc1ccc(NC(=S)NC(=O)c2ccc(C(C)(C)C)cc2)cc1 | < 4.60 | 5.62 |  |
| COc1cc(NC(=S)NC(=O)c2ccc(C(C)(C)C)cc2)ccc1NC(=O)c1ccccc1N | < 4.60 | 5.58 |  |
| CC(C)(C)c1ccc(C(=O)NC(=S)Nc2cccc(C(=O)O)c2)cc1 | < 4.60 | < 4.60 |  |
| COc1cc(NC(=S)NC(=O)c2ccc(C(C)(C)C)cc2)ccc1NC(=O)c1ncccn1 | < 4.60 | < 4.60 |  |
| Cc1ccc(NC(=S)NC(=O)c2ccc(C(C)(C)C)cc2)cc1C | 5.91 | 5.41 |  |
| COC(=O)CC(=O)Nc1ccc(NC(=S)NC(=O)c2ccc(C(C)(C)C)cc2)cc1OC | < 4.60 | 4.73 |  |
| COc1cc(NC(=S)NCc2ccc(C(C)(C)C)cc2)ccc1NC(=O)c1ccccc1Cl | < 4.60 | < 4.60 |  |
| Cc1cccc(NC(=S)NC(=O)c2ccc(C(C)(C)C)cc2)c1 | 5.88 | 6.00 |  |
| CC(C)(C)c1ccc(C(=O)NC(=S)Nc2cccc(Cl)c2)cc1 | 5.38 | 5.80 |  |
| CC(C)(C)c1ccc(C(=O)NC(=S)Nc2ccccn2)cc1 | < 4.60 | < 4.60 |  |
| COc1cc(NC(=S)NC(=O)c2ccc(C(C)(C)C)cc2)ccc1NCc1ccccc1Cl | 6.70 | 6.47 |  |
| Cc1ccc(NC(=S)NC(=O)c2ccc(C(C)(C)C)cc2)c(C)c1 | 6.06 | 5.97 |  |
| CC(C)(C)c1ccc(C(=O)NC(=S)Nc2cccc([N+](=O)[O-])c2)cc1 | < 4.60 | < 4.60 |  |
| CC(C)(C)c1ccc(C(=O)NC(=S)Nc2ccc(NC(=O)c3ccccc3Cl)c(O)c2)cc1 | 6.68 | 6.64 |  |
| CC(C)(C)c1ccc(C(=O)NC(=S)Nc2ccc(S(=O)(=O)Nc3nccs3)cc2)cc1 | < 4.60 | < 4.60 |  |
| COc1cc(NC(=S)NC(=O)c2ccc(C(C)(C)C)cc2)ccc1NC(=N)N | < 4.60 | < 4.60 |  |
| COC(=O)c1cnc(NC(=S)NC(=O)c2ccc(C(C)(C)C)cc2)s1 | < 4.60 | < 4.60 |  |
| CC(C)(C)c1ccc(C(=O)NC(=S)Nc2cccc(NC(=O)c3ccccc3Cl)c2)cc1 | < 4.60 | < 4.60 |  |
| CNc1ccc(NC(=S)NC(=O)c2ccc(C(C)(C)C)cc2)cc1 | 5.84 | 5.94 |  |
| COc1cc(NC(=S)NC(=O)c2ccc(C(C)(C)C)cc2)ccc1NC(=O)c1cccc(N)c1 | < 4.60 | < 4.60 |  |
| COc1cc(NC(=S)NC(=O)c2ccc(C(C)(C)C)cc2)ccc1NC(=O)c1ccccn1 | < 4.60 | < 4.60 |  |
| CC(C)(C)c1ccc(C(=O)NC(=S)Nc2cccc(CN)c2)cc1 | < 4.60 | < 4.60 |  |
| CC(C)(C)c1ccc(C(=O)NC(=S)Nc2ccccc2N)cc1 | < 4.60 | < 4.60 |  |
| CC(C)(C)c1ccc(C(=O)NC(=S)Nc2ccc(Cl)cc2)cc1 | < 4.60 | < 4.60 |  |
| CC(C)(C)c1ccc(C(=O)NC(=S)Nc2ccc([N+](=O)[O-])cc2)cc1 | < 4.60 | 5.39 |  |
| Cc1ccc(C)c(NC(=S)NC(=O)c2ccc(C(C)(C)C)cc2)c1 | < 4.60 | 5.54 |  |
| COc1cc(NC(=S)NC(=O)c2ccc(C(C)(C)C)cc2)ccc1NC(=O)c1ccc2nc[nH]c2c1 | < 4.60 | < 4.60 |  |

| Compound | pEC50 (La Crosse virus [1]) | pEC50 (Vaccinia virus) | Activity (La Crosse virus [2]) |
| --- | --- | --- | --- |
| Cc1ccccc1NC(=S)NC(=O)c1ccc(C(C)(C)C)cc1 | 6.20 | 6.08 |  |
| COc1cc(NC(=S)NC(=O)c2ccc(C(C)(C)C)cc2)ccc1NC(=O)c1ncc[nH]1 | < 4.60 | < 4.60 |  |
| CC(C)(C)c1ccc(C(=O)NC(=S)Nc2ccc(Nc3ccccn3)cc2)cc1 | < 4.60 | < 4.60 |  |
| COc1ccc(NC(=S)NC(=O)c2ccc(C(C)(C)C)cc2)cc1NC(=O)c1ccccc1Cl | < 4.60 | < 4.60 |  |
| CN(C)c1ccc(NC(=S)NC(=O)c2ccc(C(C)(C)C)cc2)cc1 |  | 5.61 |  |
| CC(C)(C)c1ccc(C(=O)NC(=S)Nc2nc(-c3cccc([N+](=O)[O-])c3)cs2)cc1 | < 4.60 | < 4.60 |  |
| Cc1cc(C)cc(NC(=S)NC(=O)c2ccc(C(C)(C)C)cc2)c1 | 5.35 | 5.46 | inactive |
| Cc1ccc(Cl)c(NC(=S)NC(=O)c2ccc(C(C)(C)C)cc2)c1 | 5.78 | 6.18 | inactive |
| CC(C)(C)c1ccc(C(=O)NC(=S)Nc2ccc(Nc3ccncc3)cc2)cc1 | 5.11 | < 4.60 |  |
| Cc1cccc(NC(=S)NC(=O)c2ccc(C(C)(C)C)cc2)c1Cl | 5.93 | 5.74 |  |
| CCS/C(=N\C(=O)c1ccc(C(C)(C)C)cc1)Nc1ccccc1Cl | 6.29 | 5.72 |  |
| COc1cc(NC(=S)NC(=O)c2ccc(C(C)(C)C)cc2)ccc1NC(=O)CCN(C)C | < 4.60 | < 4.60 |  |
| CC(C)(C)c1ccc(C(=O)NC(=S)Nc2cc(OC(F)(F)F)ccc2Cl)cc1 | < 4.60 | 5.72 |  |
| COc1cc(NC(=N)NC(=O)c2ccc(C(C)(C)C)cc2)ccc1NC(=O)c1ccccc1Cl |  | < 4.60 |  |
| COc1cc(N/C(=N/C#N)NC(=O)c2ccc(C(C)(C)C)cc2)ccc1NC(=O)c1ccccc1Cl |  | < 4.60 |  |
| CC(C)(C)c1ccc(C(=O)NC(=S)Nc2ccc(Nc3ccccc3)cc2)cc1 | 5.77 | 6.09 |  |
| CC(C)(C)c1ccc(C(=O)NC(=S)Nc2cccc(C(F)(F)F)c2Cl)cc1 | 6.07 | 5.74 |  |
| CC(C)(C)c1ccc(C(=O)NC(=S)Nc2ccc(Cl)cc2Cl)cc1 | < 4.60 | < 4.60 |  |
| COc1ccccc1NC(=S)NC(=O)c1ccc(C(C)(C)C)cc1 | 5.94 | 5.86 |  |
| CC(C)(C)c1ccc(C(=O)NC(=S)Nc2ccc(NC(=O)c3ccccc3Cl)c(N)c2)cc1 | 7.30 | 7.22 |  |
| CCN(C(=S)NC(=O)c1ccc(C(C)(C)C)cc1)c1ccc(NC(=O)c2ccccc2Cl)c(OC)c1 | < 4.60 | 5.00 |  |
| Cc1ccc(NC(=S)NC(=O)c2ccc(C(C)(C)C)cc2)cc1 | 5.31 | 5.72 |  |
| CN(Cc1ccccc1)S(=O)(=O)c1ccc(NC(=S)NC(=O)c2ccc(C(C)(C)C)cc2)cc1 | < 4.60 | < 4.60 |  |
| COc1cc(NC(=S)NC(=O)c2ccc(C(C)(C)C)cc2)ccc1NC(=O)c1cnccn1 | < 4.60 | < 4.60 |  |
| COc1cc(NC(=S)NC(=O)c2ccc(C(C)(C)C)cc2)ccc1NC(=O)CC(=O)O | < 4.60 | < 4.60 |  |
| CC(C)(C)c1ccc(C(=O)NC(=S)Nc2ccc(Nc3cccnc3)cc2)cc1 | < 4.60 | 4.61 |  |
| COc1cc(NC(=S)NC(=O)c2ccc(C(C)(C)C)cc2)ccc1NC(=O)c1ccc(N)cc1 | < 4.60 | 4.70 |  |

| Compound | pEC50 (La Crosse virus [1]) | pEC50 (Vaccinia virus) | Activity (La Crosse virus [2]) |
| --- | --- | --- | --- |
| COc1cc(NC(=S)NC(=O)c2ccc(C(C)(C)C)cc2)ccc1NC(N)=O | 5.31 | < 4.60 |  |
| CCS/C(=N\C(=O)c1ccc(C(C)(C)C)cc1)Nc1ccc(NC(=O)c2ccccc2Cl)c(OC)c1 | 6.52 | 6.64 |  |
| COc1cc(N/C(=N/C(=O)c2ccc(C(C)(C)C)cc2)SCC(=O)OC(C)(C)C)ccc1NC(=O)c1ccccc1Cl | < 4.60 | < 4.60 |  |
| COc1cc(NC(=S)NC(=O)c2ccc(C(C)(C)C)cc2)ccc1NC(=N)c1ccccc1Cl | 5.69 | 5.76 |  |
| CC(C)(C)c1ccc(C(=O)NC(=S)NC2CCCCC2)cc1 | 5.43 | 5.31 |  |
| CC(C)(C)c1ccc(C(=O)NC(=S)Nc2cccnc2)cc1 | < 4.60 | < 4.60 |  |
| COc1cc(NC(=S)NC(=O)c2ccc(C(C)(C)C)cc2)ccc1NC(=O)c1ccncc1 |  | 5.69 |  |
| COc1cc(NC(=S)NC(=O)c2ccc(C(C)(C)C)cc2)ccc1NC(C)=O | 5.87 | 5.49 |  |
| COc1cc(NC(=S)NC(=O)c2ccc(C(C)(C)C)cc2)ccc1NC(=O)CCC(=O)O | < 4.60 | < 4.60 |  |
| COc1ccc(-c2csc(NC(=S)NC(=O)c3ccc(C(C)(C)C)cc3)n2)cc1OC | < 4.60 | < 4.60 |  |
| CC(C)(C)c1ccc(C(=O)NC(=S)Nc2ccc(S(=O)(=O)NC3CCCCC3)cc2)cc1 | < 4.60 | < 4.60 |  |
| CC(C)(C)c1ccc(C(=N)NC(=S)Nc2ccccc2Cl)cc1 | < 4.60 | < 4.60 |  |
| CC(C)(C)c1ccc(C(=O)NC(=S)Nc2ccc(NC(=O)c3ccccc3)cc2Cl)cc1 | 7.10 | 6.80 |  |
| COc1cc(N/C(=N/C(=O)c2ccc(C(C)(C)C)cc2)SCCN(C)C)ccc1NC(=O)c1ccccc1Cl | < 4.60 | < 4.60 |  |
| COc1cc(NC(=S)NC(=O)c2ccc(C(C)(C)C)cc2)ccc1NC(=O)CCCCN(C)C | < 4.60 | < 4.60 |  |
| CC(C)(C)c1ccc(C(=O)NC(=S)Nc2ccc(C(=O)O)cc2)cc1 | < 4.60 | < 4.60 |  |
| Cc1cccc(NC(=S)NC(=O)c2ccc(C(C)(C)C)cc2)c1C | 5.59 | 5.74 |  |
| CC(C)(C)c1ccc(C(=O)NC(=S)Nc2ccc(N)cc2Cl)cc1 | 6.12 | 6.21 |  |
| Cc1cccc(Cl)c1NC(=S)NC(=O)c1ccc(C(C)(C)C)cc1 | 6.03 | 5.60 |  |
| COc1cc(NC(=S)NC(=O)c2ccc(C(C)(C)C)cc2)ccc1NC(=O)c1cccnc1 |  | 5.76 |  |
| CC(C)(C)c1ccc(C(=O)NC(=S)Nc2cc(C(F)(F)F)ccc2Cl)cc1 | 6.22 | 6.00 |  |
| COc1cccc(NC(=S)NC(=O)c2ccc(C(C)(C)C)cc2)c1 | < 4.60 | 5.39 |  |
| COc1cc(NC(=S)NC(=O)c2ccc(C(C)(C)C)cc2)ccc1NC(=S)c1ccccc1Cl | 6.19 | 6.00 |  |
| COc1cc(NC(=S)NC(=O)c2ccc(C(C)(C)C)cc2)ccc1NC(=O)c1c[nH]cn1 | < 4.60 | < 4.60 |  |
| CC(C)(C)c1ccc(C(=O)NC(=S)Nc2ccc(S(=O)(=O)N3CCCCC3)cc2)cc1 | < 4.60 | < 4.60 |  |
| CC(C)(C)c1ccc(C(=O)NC(=S)Nc2ccccc2[N+](=O)[O-])cc1 | 5.43 | 5.44 |  |

Reference: ChEMBL document CHEMBL2040790 (Bioorg Med Chem Lett, 2012)
